Laboratory results as given in patent publication US10376520B2, “Methods for the treatment of cardiovascular disorders” (Galapagos NV, priority 2015, dated 2019).

Test system: RA patients
Assay: Atherogenic index, Study 2 (RA patients, monotherapy)
Type: in vivo, human
Experimental: As used herein, the term ‘atherogenic index’ refers to
Double-blind, placebo-controlled, monotherapy study in subjects with moderately to severely active RA who have an inadequate response to methotrexate (MTX) (oral or parenteral).
Twelve weeks of treatment with Compound 1 (dosed as a [Compound 1:HCl:3H2O]) at 50 mg, 100 mg, or 200 mg q.d.; or placebo. At Week 12, all subjects on placebo and the subjects on the 50 mg dose who have not achieved 20% improvement in swollen joint count (SJC66) and tender joint count (TJC68) will be assigned to 100 mg q.d. in a blinded fashion and will continue treatment until Week 24. Subjects in the other groups will maintain their randomized treatment until Week 24.
The atherogenic index has been identified to be a good predictor of cardiovascular disorders risks and is calculated as follows: […]

[1] = 50 mg q.d. non responders switching to 100 mg q.d., week 1
[2] = 50 mg q.d. non responders switching to 100 mg q.d., week 2
[3] = 50 mg q.d. non responders switching to 100 mg q.d., week 4
[4] = 50 mg q.d. non responders switching to 100 mg q.d., week 8
[5] = 50 mg q.d. non responders switching to 100 mg q.d., week 12
[6] = 50 mg q.d. non responders switching to 100 mg q.d., week 16
[7] = 50 mg q.d. non responders switching to 100 mg q.d., week 20
[8] = 50 mg q.d. non responders switching to 100 mg q.d., week 24

O=C(Nc1nc2cccc(-c3ccc(CN4CCS(=O)(=O)CC4)cc3)n2n1)C1CC1 [Compound 1, cyclopropanecarboxylic acid {5-[4-(1,1-dioxo-thiomorpholin-4-ylmethyl)-phenyl]-[1,2,4]triazolo[1,5-a]pyridin-2yl}-amide]
Atherogenic index Mean percentage CFB - 24 weeks results [1]: −0.49%
Atherogenic index Median CFB - 24 weeks results [1]: 0.00 mmol/L
Atherogenic index Median percentage CFB - 24 weeks results [1]: 0.00%
Atherogenic index Mean percentage CFB - 24 weeks results [2]: 0.40%
Atherogenic index Median CFB - 24 weeks results [2]: -0.10 mmol/L
Atherogenic index Median percentage CFB - 24 weeks results [2]: −2.38%
Atherogenic index Median CFB - 24 weeks results [3]: -0.20 mmol/L
Atherogenic index Median percentage CFB - 24 weeks results [3]: −6.67%
Atherogenic index Mean percentage CFB - 24 weeks results [4]: 3.03%
Atherogenic index Median CFB - 24 weeks results [4]: -0.20 mmol/L
Atherogenic index Median percentage CFB - 24 weeks results [4]: −6.82%
Atherogenic index Mean percentage CFB - 24 weeks results [5]: −2.71%
Atherogenic index Median CFB - 24 weeks results [5]: -0.20 mmol/L
Atherogenic index Median percentage CFB - 24 weeks results [5]: −5.88%
Atherogenic index Mean percentage CFB - 24 weeks results [6]: −3.31%
Atherogenic index Median CFB - 24 weeks results [6]: -0.20 mmol/L
Atherogenic index Median percentage CFB - 24 weeks results [6]: −5.00%
Atherogenic index Mean percentage CFB - 24 weeks results [7]: −3.58%
Atherogenic index Median CFB - 24 weeks results [7]: -0.20 mmol/L
Atherogenic index Median percentage CFB - 24 weeks results [7]: −5.88%
Atherogenic index Mean percentage CFB - 24 weeks results [8]: −7.04%
Atherogenic index Median CFB - 24 weeks results [8]: -0.30 mmol/L
Atherogenic index Median percentage CFB - 24 weeks results [8]: −9.97%
Atherogenic index Mean percentage CFB - 24 weeks results (50 mg q.d. responders, week 1): −0.34%
Atherogenic index Median CFB - 24 weeks results (50 mg q.d. responders, week 1): -0.10 mmol/L
Atherogenic index Mean percentage CFB - 24 weeks results (50 mg q.d. responders, week 2): −3.56%
Atherogenic index Median CFB - 24 weeks results (50 mg q.d. responders, week 2): -0.05 mmol/L
Atherogenic index Mean percentage CFB - 24 weeks results (50 mg q.d. responders, week 4): −2.87%
Atherogenic index Median CFB - 24 weeks results (50 mg q.d. responders, week 4): -0.25 mmol/L
Atherogenic index Median percentage CFB - 24 weeks results (50 mg q.d. responders, week 4): −7.69%
Atherogenic index Mean percentage CFB - 24 weeks results (50 mg q.d. responders, week 8): −2.06%
Atherogenic index Median CFB - 24 weeks results (50 mg q.d. responders, week 8): -0.10 mmol/L
Atherogenic index Mean percentage CFB - 24 weeks results (50 mg q.d. responders, week 12): 0.89%
Atherogenic index Median CFB - 24 weeks results (50 mg q.d. responders, week 12): -0.10 mmol/L
Atherogenic index Median percentage CFB - 24 weeks results (50 mg q.d. responders, week 12): −2.56%
Atherogenic index Mean percentage CFB - 24 weeks results (50 mg q.d. responders, week 16): 1.59%
Atherogenic index Median CFB - 24 weeks results (50 mg q.d. responders, week 16): 0.00 mmol/L
Atherogenic index Median percentage CFB - 24 weeks results (50 mg q.d. responders, week 16): 0.00%
Atherogenic index Median CFB - 24 weeks results (50 mg q.d. responders, week 20): -0.20 mmol/L
Atherogenic index Median percentage CFB - 24 weeks results (50 mg q.d. responders, week 20): −4.04%
Atherogenic index Median CFB - 24 weeks results (50 mg q.d. responders, week 24): -0.20 mmol/L
Atherogenic index Median percentage CFB - 24 weeks results (50 mg q.d. responders, week 24): −5.77%
Atherogenic index Mean CFB - 12 weeks results (50 mg q.d., week 1): 0.00 mmol/L
Atherogenic index Mean percentage CFB - 12 weeks results (50 mg q.d., week 1): −0.38%
Atherogenic index Median CFB - 12 weeks results (50 mg q.d., week 1): 0.00 mmol/L
Atherogenic index Median percentage CFB - 12 weeks results (50 mg q.d., week 1): 0.00%
Atherogenic index Mean CFB - 12 weeks results (50 mg q.d., week 2): -0.10 mmol/L
Atherogenic index Median CFB - 12 weeks results (50 mg q.d., week 2): -0.10 mmol/L
Atherogenic index Median percentage CFB - 12 weeks results (50 mg q.d., week 2): −2.38%
Atherogenic index Mean CFB - 12 weeks results (50 mg q.d., week 4): -0.13 mmol/L
Atherogenic index Mean percentage CFB - 12 weeks results (50 mg q.d., week 4): −2.63%
Atherogenic index Median CFB - 12 weeks results (50 mg q.d., week 4): -0.20 mmol/L
Atherogenic index Median percentage CFB - 12 weeks results (50 mg q.d., week 4): −7.69%
Atherogenic index Mean CFB - 12 weeks results (50 mg q.d., week 8): -0.03 mmol/L
Atherogenic index Mean percentage CFB - 12 weeks results (50 mg q.d., week 8): −0.95%
Atherogenic index Median CFB - 12 weeks results (50 mg q.d., week 8): -0.10 mmol/L
Atherogenic index Median percentage CFB - 12 weeks results (50 mg q.d., week 8): −2.70%
Atherogenic index Mean CFB - 12 weeks results (50 mg q.d., week 12): 0.01 mmol/L
Atherogenic index Mean percentage CFB - 12 weeks results (50 mg q.d., week 12): 0.09%
Atherogenic index Median CFB - 12 weeks results (50 mg q.d., week 12): -0.10 mmol/L
Atherogenic index Median percentage CFB - 12 weeks results (50 mg q.d., week 12): −3.85%
Atherogenic index Mean CFB - 12 weeks results (100 mg q.d., week 1): -0.05 mmol/L
Atherogenic index Mean percentage CFB - 12 weeks results (100 mg q.d., week 1): −0.84%
Atherogenic index Mean percentage CFB - 24 weeks results (100 mg q.d., week 1): −0.84%
Atherogenic index Median CFB - 12 weeks results (100 mg q.d., week 1): 0.00 mmol/L
Atherogenic index Median CFB - 24 weeks results (100 mg q.d., week 1): 0.00 mmol/L
Atherogenic index Median percentage CFB - 12 weeks results (100 mg q.d., week 1): 0.00%
Atherogenic index Median percentage CFB - 24 weeks results (100 mg q.d., week 1): 0.00%
Atherogenic index Mean CFB - 12 weeks results (100 mg q.d., week 2): -0.11 mmol/L
Atherogenic index Mean percentage CFB - 12 weeks results (100 mg q.d., week 2): −2.82%
Atherogenic index Mean percentage CFB - 24 weeks results (100 mg q.d., week 2): −2.82%
Atherogenic index Median CFB - 12 weeks results (100 mg q.d., week 2): -0.20 mmol/L
Atherogenic index Median CFB - 24 weeks results (100 mg q.d., week 2): -0.20 mmol/L
Atherogenic index Median percentage CFB - 12 weeks results (100 mg q.d., week 2): −6.25%
Atherogenic index Median percentage CFB - 24 weeks results (100 mg q.d., week 2): −6.25%
Atherogenic index Mean CFB - 12 weeks results (100 mg q.d., week 4): -0.19 mmol/L
Atherogenic index Mean percentage CFB - 12 weeks results (100 mg q.d., week 4): −4.17%
Atherogenic index Mean percentage CFB - 24 weeks results (100 mg q.d., week 4): −4.17%
